Results published in patent US20030105093A1, “MTP activity-lowering compositions” (priority 1998, published 2003).
Structures can show the parent of a compound that is named as a salt.

Tests used:
[1] = system: MTP (microsomal triglyceride transfer protein); experiment: MTP activity-lowering activity: liver MTP activity after 2 weeks' dosing of rats; assay type: in vivo; conditions: SD rats, liver homogenate, control group 9.09 ± 1.0
Experimental: SD rats weighing about 200 g in groups of 6 were given 20 mg or 60 mg of the hydrochloride of the amino acid of the invention in 10 ml of water in 3 divided doses daily for 2 weeks. Thereafter, the liver was excised and homogenized using a homogenizing buffer (50 mM Tris (pH 7.4), 50 mM potassium chloride, 1.5 mM EDTA, leupeptin (5 μg/ml) and 2 mM phenylmethylsulfonyl fluoride) and the homogenate was centrifuged to give a liver homogenate. This liver homogenate was adjusted to a protein concentration of about 2 mg/mL with the same homogenizing buffer and 1 part of deoxycholate solution (0.56%, pH 7.5) was added to 10 parts of the homogenate. The reaction was then carried out at 4° C. for 30 minutes, whereby MTP was liberated from the microsomal fraction. The membrane fraction was then removed by centrifugation to give a supernatant. This supernatant was diluted with Tris buffer (a buffer solution containing 15 mM Tris (pH 7.4), 40 mM NaCl, 1 mM EDTA, 0.02% NaN3) and dialyzed against the same buffer at 4° C. overnight. The dialysate thus obtained was analyzed for MTP activity by the method of J. R. Wetterau [Science, 258, 999 (1992)].

[2] = system: HepG2 cells (apo B secretion); experiment: Apo B antisecretory activity (1): apo B secreted into medium by HepG2 cells, ELISA; assay type: cell-based, human; conditions: for Apo B secretions (μg/well): 24 hours' culture, control group 9.92 ± 0.80
Experimental: HepG2 cells (100×10^4 cells/dish) were sown on 3.5 cm dishes and precultured using 1 ml DME (containing 10% FCS) medium per dish. Following this preculture, the cells were washed with DME medium twice, added to the test medium, and cultured at 37° C. under 95% air-5% carbon dioxide for 24 hours. The test medium was prepared by dissolving cycloalliin in dimethyl sulfoxide and diluted with DME medium containing 1% ESA and 0.5 mM oleic acid to a final cycloalliin concentration of 10^−6 M or 10^−4 M.
After 24 hours' culture, the medium was recovered and the amount of apo B secreted into the medium was determined by ELISA. Thus, anti-human apo B antibody (a 100-fold dilution) was distributed into a 96-well ELISA plate, 100 μL per well, and incubated at 37° C. for 2 hours. Then, 100 μL/well of Block Ace was added and the plate was further incubated at 37° C. for 2 hours. The wells were washed with PBS-Tween×3 and 100 μL each of apo B standard solution and HepG2 culture were added, followed by further incubation at 4° C. for 16 hours. After the wells were washed with PBS-Tween×3, 100 μL/well of anti-human apo B marker antibody (a 200-fold dilution) was added and the plate was incubated at 37° C. for 2 hours. The wells were washed with PBS-Tween×3, then 100 μL/well of the substrate solution was added, and the plate was incubated at 25° C. for 30 minutes. The reaction was stopped by adding 50 μL of 4.5 M H2SO4 and the absorbance at 482 nm was measured to estimate the amount of apo B secretion.

[3] = system: HepG2 cells (TG secretion); experiment: TG antisecretory activity: secreted [14C]-labeled triglyceride in HepG2 medium; assay type: cell-based; conditions: HepG2, 10 μM, 24 hours of culture; control group 161.2 ± 2.2
Experimental: HepG2 cells were cultured in DME medium supplemented with 1% BSA and 0.5 mM oleic acid for 24 hours. Then, the medium was changed to 1% BSA-DME containing 10 μM of the amino acid of the invention and simultaneously 0.5 μci of [^14C] acetic acid was added. The cells and medium were recovered after 24 hours of culture. The recovered cells were homogenized by sonication, and after quantitation of protein, the amount of secreted triglyceride (TG) was determined from the amount of labeled lipid in the medium.

[4] = 60 mg daily in 3 divided doses for 2 weeks

For `C[C@H]1C[S@+]([O-])C[C@@H](C(=O)O)N1` [Cycloalliin HCl, (1S, 3R, 5S)-5-methyl-1,4-thiazane-3-carboxylic acid 1-oxide], the “MTP activity (%)” value ([1]; 20 mg daily in 3 divided doses for 2 weeks) was 6.12 ± 0.7 % and the “MTP activity (%)” value [1, 4] was 4.92 ± 1.0 %.
With `C[C@H]1C[S@+]([O-])C[C@@H](C(=O)O)N1` [Cycloalliin, (1S, 3R, 5S)-5-methyl-1,4-thiazane-3-carboxylic acid 1-oxide] the “Apo B secretions (μg/well)” value ([2]; HepG2, 10^−4 M) was 7.67 ± 1.31 μg/well, the “Effect on apo B secretion (in words)” value ([2]; HepG2, 10^−6 M or 10^−4 M, 24 hours, vs control group) was “significant suppression of apo B secretion” and the “Apo B secretions (μg/well)” value ([2]; HepG2, 10^−6 M) was 7.54 ± 1.13 μg/well.
In the case of “S-methyl-L-cysteine sulfoxide [S-methyl-L-cysteine sulfoxide HCl]”, the “MTP activity (%)” value [1, 4] was 5.43 ± 0.6 %.
For S-n-propyl-L-cysteine sulfoxide, the “TG secretions ([^14C] dpm × 10^−2/mg protein)” value [3] was 105.8 ± 18.9 [^14C] dpm × 10^−2/mg protein.
